According to ChEMBL document CHEMBL1132670, “Combinatorial search of substituted beta-cyclodextrins for phosphatase-like activity” (Bioorg Med Chem Lett, 1999):

Experiment: Pseudo-first-order rate constant was determined by hydrolysis p-NPP in the presence of Zn 2+ at 37 C
Assay type: ADME

K obs: 4.16e-07 s⁻¹
Structure (SMILES): OC[C@H]1O[C@@H]2O[C@H]3[C@H](O)[C@@H](O)[C@@H](O[C@H]4[C@H](O)[C@@H](O)[C@@H](O[C@H]5[C@H](O)[C@@H](O)[C@@H](O[C@H]6[C@H](O)[C@@H](O)[C@@H](O[C@H]7[C@H](O)[C@@H](O)[C@@H](O[C@H]8[C@H](O)[C@@H](O)[C@@H](O[C@H]1[C@H](O)[C@H]2O)O[C@@H]8CO)O[C@@H]7CO)O[C@@H]6CO)O[C@@H]5CO)O[C@@H]4CO)O[C@@H]3CO [BETADEX]
